# Test results: patent US11672870B2, “Transduction” (The University of Nottingham, priority 2013, dated 2023)
# Columns and labels:
# NIH3t3: LSL-eGFP cells = test: Cre recombination assay; type: cell-based, mouse; settings: drug pre-treatment and co-treatment (FIG. 17a-d)
# NIH3t3 cells = test: Fluorescence delivery assay with membrane depletion, GAG competition, Heparinase, serum or Sodium Chlorate; type: cell-based, mouse; settings: for effect on cell-surface binding and transduction of HETD proteins: free GAG competition (FIG. 3b); for inhibition of PTD-only protein transduction: free GAG competition (FIG. 12)
# Excerpt: For flow cytometry, cells were trypsinized (unless otherwise stated), fixed in 4% (w/v) PFA, resuspended in PBS (pH7.5) and analysed on a MoFlo™ DP (DAKO) Flow Cytometer using a 488 nm […] laser. (50,000 cells; gated on live cells by forward/side scatter). Median fluorescence was used for statistical analyses with background from unlabelled/transduced cells subtracted and values taken as ratios to the experimental control. Data shown are three experiments of triplicate samples. For microscopy, cultures were rinsed twice with PBS and imaged with inverted fluorescence microscope (Nikon Eclipse TS100).
# For testing multiple cell lines we plated 2=10^5 cells/well (in 12-well plates) onto the surface relevant to the tested cell line, attached cells for 2 hours and transduced with recombinant proteins in cell-type specific growth media. After transduction cells were washed with PBS, trypsinized and fixed in 4% PFA for flow cytometry. For membrane localization, intracellular localisation or both we plated cells as above, but cultures pre-incubated in serum-free media for 1 hour before transduction. Membrane localization to assess cell interaction was achieved by a short transduction of 1 hour in serum-free media. Intracellular localization to assess transduction efficiency was achieved by a short transduction of 1 hour followed by 5 hour incubation in serum-free media only. Cell association (membrane and intracellular levels) were assessed by transducing cells for 6 hours in serum-free medium. For flow cytometry cells were trypsinized, washed and fixed in 4% PFA and for microscopy cells were imaged live after washing in PBS. For trypsin depletion of cell-surface proteins, cells were treated with trypsin/EDTA (Invitrogen) or EDTA-based cell dissociation solution (CDS) (Sigma) for 15 minutes at 37° C., followed by washes with PBS and 1× soybean trypsin inhibitor (10 mg/ml in PBS; Sigma). Cells were then treated with proteins for 1 hour at 37° C. in serum-free medium. For detergent depletion of cell membranes, cells were treated with PBS (pH7.5) containing 0.1% (v/v) Triton-X100 (Tx100) for 10 minutes at 37° C., followed by washes with PBS. Cells were then treated with proteins for 1 hour at 37° C. in serum-free medium. For GAG-treatment cells were pre-treated with GAGs in DMEM without serum before transduction and were included in the transduction media. This included heparin and chondroitin sulphate A, B and C (0-50 μg/ml).
# For Heparin binding activity we incubated 1 ml of recombinant proteins (20 μg/ml) in DMEM with 50 μl of PBS-washed Heparin-sepharose beads (Sigma) for 1 hour at 37° C. shaking at 100 rpm. Media pre- and post-incubation was compared by fluorometry. For Heparinase treatment, we plated NIH3t3 cells at 2×10^5/well (in 12-well plates) and were pre-incubated in serum-free media for 1 hour with Heparinase III (0-1 U/ml) or Heparin (0-50 μg/ml). Cells were then washed and transduced with mR or P21-mR-8R (20 μg/ml in serum-free media or media with different FCS concentrations) containing Heparinase III or Heparin for 12 hours. FCS was depleted of P21-binding material by affinity chromatography. This was achieved by incubating 50 ml FCS with 2 ml Glutathione-Sepharose resin (GE Healthcare) pre-absorbed with GST-P21 protein expressed in Escherichia coli.
# NIH 3t3 fibroblast cells = test: Iron oxide nanoparticle uptake (Prussian blue, iron assay); type: cell-based
# Method: Confluent cells were split into 12 well plates at 200,000 cells/well and incubated for 24 hours at 37° C. After 24 hours 50 μg of Nanomag-D iron oxide nanoparticles (250 nm) and either 0, 0.01, 0.05, 0.1, 0.5, 2, 1, 5 and 10 μM of cell penetrating peptide were added to the cells with either 10% FCS DMEM or serum free DMEM media and left for 24 hours for iron nanoparticles to be internalised. After incubation cells were washed in PBS to remove excess nanoparticles then harvested for qualitative Prussian blue staining, quantitative colorimetric iron assay or fluorescence activated flow cytometry.
# Cells were labelled then fixed in 4% (w/v) PFA for 15-20 minutes at 4° C. A staining solution of 2.5% potassium ferrocyanide in 2.5% HCL was added to cells and incubated for an hour at room temperature. If nanoparticles were present a blue stain appeared which is proportional to the concentration of iron.
# Quantitative Colorimetric Iron Assay Cells were labelled, trypsinised and pelleted then all media removed. 40 μl of 37% HCL was added to the cells and heated at 70° C. until dissolved, then neutralised with 50 μl of NaOH. Those samples containing a high concentration of iron were diluted 1:10 then 40 μl of Quantichrom working reagent was added and the instructions in the Quantichrom iron assay followed.
molecule,measurement,setting,value
N=C(N)NC(=O)c1nc(Cl)c(N)nc1N [Amiloride],effect on functional delivery of HETD-tagged Cre,NIH3t3: LSL-eGFP cells,dose-dependent reduction
C=C1[C@@H](C)[C@H]2[C@H](Cc3ccccc3)NC(=O)[C@]23[C@H](OC(C)=O)/C=C/[C@@](C)(O)C(=O)[C@@H](C)C/C=C/[C@H]3[C@@H]1O [Cytochalasin D],effect on functional delivery of HETD-tagged Cre,NIH3t3: LSL-eGFP cells,dose-dependent reduction
[Na+].[O-][Cl+2]([O-])[O-] [Sodium Chlorate],prevention of HETD-mediated protein delivery,NIH3t3 cells; inhibitor of HS synthesis (FIG. 14),~7.6 fold
C[C@@H]1[C@H](O)[C@@H](C)/C=C/C=C/CC/C=C/C=C/C=C/C=C/C(O[C@H]2O[C@H](C)[C@@H](O)[C@H](N)[C@@H]2O)CC2O[C@](O)(CC(O)C(O)CCC(O)CC(O)CC(O)CC(=O)O[C@H]1C)CC(O)C2C(=O)O (stereo partly drawn) [nystatin],effect on functional delivery of HETD-tagged Cre,NIH3t3: LSL-eGFP cells,dose-dependent inhibition
Chondroitin sulphate [CS-A],effect on cell-surface binding and transduction of HETD proteins,NIH3t3 cells,little effect
Chondroitin sulphate [CS-B],effect on cell-surface binding and transduction of HETD proteins,NIH3t3 cells,little effect
same,inhibition of PTD-only protein transduction,NIH3t3 cells,2.4 fold
Chondroitin sulphate [CS-C],effect on cell-surface binding and transduction of HETD proteins,NIH3t3 cells,little effect
same,inhibition of PTD-only protein transduction,NIH3t3 cells,4.1 fold
Heparin,effect on P21 binding and nanoparticle uptake,NIH 3t3 fibroblast cells; added to media,inhibitor for the binding
same,inhibition of PTD-only protein transduction,NIH3t3 cells,8.1 fold
same,inhibition of transduction of HETD proteins,"NIH3t3 cells; free GAG in media, P21-mR-8R 20 μg/ml (FIG. 3)",99.8±2.1%
Methyl-β-cyclodextrin [methyl-b-cyclodextrin],effect on functional delivery of HETD-tagged Cre,NIH3t3: LSL-eGFP cells,dose-dependent inhibition
dextran,decrease in nanoparticle uptake,"NIH 3t3 fibroblast cells; increasing concentration added to media, 1 μM P218R",18%
"heparinase III: HS-lyase enzyme (protein, UniProt Q59289 25-659, looked up) Heparin-sulfate lyase: QSSSITRKDFDHINLEYSGLEKVNKAVAAGNYDDAAKALLAYYREKSKAREPDFSNAEKPADIRQPIDKVTREMADKALVHQFQPHKGYGYFDYGKDINWQMWPVKDNEVRWQLHRVKWWQAMALVYHATGDEKYAREWVYQYSDWARKNPLGLSQDNDKFVWRPLEVSDRVQSLPPTFSLFVNSPAFTPAFLMEFLNSYHQQADYLSTHYAEQGNHRLFEAQRNLFAGVSFPEFKDSPRWRQTGISVLNTEIKKQVYADGMQFELSPIYHVAAIDIFLKAYGSAKRVNLEKEFPQSYVQTVENMIMALISISLPDYNTPMFGDSWITDKNFRMAQFASWARVFPANQAIKYFATDGKQGKAPNFLSKALSNAGFYTFRSGWDKNATVMVLKASPPGEFHAQPDNGTFELFIKGRNFTPDAGVFVYSGDEAIMKLRNWYRQTRIHSTLTLDNQNMVITKARQNKWETGNNLDVLTYTNPSYPNLDHQRSVLFINKKYFLVIDRAIGEATGNLGVHWQLKEDSNPVFDKTKNRVYTTYRDGNNLMIQSLNADRTSLNEEEGKVSYVYNKELKRPAFVFEKPKKNAGTQNFVSIVYPYDGQKAPEISIRENKGNDFEKGKLNLTLTINGKQQLVLVP",inhibition of GET/HETD-mediated transduction,"NIH3t3 cells; at 1 U/ml, 6 h protocol",97.2±3.4%
